We go through three molecules from patent publication US11911610B2, “Methods for restoring sensitivity to TTFields in TTFields-resistant cancer cells with PTGER3 inhibitors” (Novocure GmbH, priority 2019, dated 2024).

The test system of assay [1] is TTFields-resistant GBM cells (U87R, L428R, and LN827R). Kind of assay: Reduction of resistance to TTFields in TTFields-resistant GBM cells (FIG. 13). Format: cell-based, human. The settings on record: Aspirin+TTFields compared with Vehicle+TTFields, 3 days. The protocol: (§1) For the experiments summarized in FIG. 13, resistant human GBM cells were treated with either vehicle control or aspirin and with or without TTFields for 3 days. Drug was replenished daily. The numbers of live cells were quantified using a cell counter at the end point.

The subject of assay [2] is U87R resistant cells. Kind of assay: Live cell count of TTFields-resistant GBM cells treated with drug with or without TTFields for 3 days. The settings on record: for sensitivity to TTFields: inhibitor + TTFields 200 kHz compared with TTFields alone, FIG. 14. The assay is classed as cell-based, human. The protocol:
as §1
PTGER3 inhibitors can restore sensitivity to TTFields.

In assay [3] the test system is LN428R resistant cells. The assay is described as above. Format: cell-based, human. Conditions: aspirin + TTFields, drug replenished daily, reduced from 85 k/dish, TTFields alone 70 k/dish. On the procedure:
as §1

Assay [4] concerns LN827R cells. The assay is described as above. Format: cell-based, human. The settings on record: aspirin + TTFields, drug replenished daily, reduced from around 125 k/dish, TTFields alone increased count slightly. The protocol: as §1
In assay [5] the test system is human GBM cell lines (LN827). Kind of assay: Resistant cell line generation experiment with PTGER3 inhibitor (FIG. 16). Format: cell-based. The settings on record: L798,106 + TTFields, 5 cycles of 7 days. The source says: For the experiments summarized in FIG. 2, TTFields-resistant human GBM cell lines were generated by seeding LN827 cells at a density of 10,000/ml and treated with TTFields for in repeated 1-week cycles at a frequency of 200 kHz. For each cycle, cells were counted on day 2, day 4 and day 7. At the end of each cycle, the cells were re-seeded at the same density as on day 0, harvested and processed for RNAseq and cryopreservation for future analysis. Resistant cells emerged after at least four weeks of TTFields treatment.
The resistant cell line generation experiment using the original human GBM cell lines from FIG. 2 was repeated with two more groups that included a PTGER3 inhibitor (L798,106 and L798,106+TTFields) (FIG. 16). […] Cells were seeded and counted at the same cell density and time points. Each cycle lasts for 7 days within total of 5 cycles.

Turning to `CC(=O)Oc1ccccc1C(=O)O` [aspirin], the “resistance to TTFields” value in assay [1] is “significantly reduces resistance to TTFields”. The live cell count worked out at 100 k/dish in assay [2] (aspirin + TTFields, drug replenished daily, reduced from 150 k/dish, TTFields alone 125 k/dish); 40 k/dish in assay [3]; 90 k/dish in assay [4].

`COc1ccc(Br)cc1S(=O)(=O)NC(=O)/C=C/c1ccccc1Cc1ccc2ccccc2c1` [L798,106]: the “development of resistance to TTFields” value in assay [5] is on record as “prevented the development of resistance to TTFields”. The live cell count in assay [2] (L798,106 0.5 μM + TTFields 200 kHz, reduced from around 200 k/dish, TTFields alone 125 k/dish) worked out at 25 k/dish. Further, the “sensitivity to TTFields” value in assay [2] was “restores sensitivity to TTFields”.

Regarding `Cc1cn(Cc2ccc(Cl)cc2Cl)c2c(/C=C/C(=O)NS(=O)(=O)c3cc(Cl)c(Cl)s3)cc(F)cc12` [DG041], in assay [2] (DG041 50 nM + TTFields 200 kHz, reduced from around 160 k/dish, TTFields alone 100 k/dish), the live cell count entry is recorded as “around 40 k/dish”. The “sensitivity to TTFields” value in assay [2] was “restores sensitivity to TTFields”.
